{"source": "paper PMC5041457", "about": "“Synergy and antagonism in regulation of recombinant human INO80 chromatin remodeling complex” (Nucleic Acids Research, 2016)", "key": {"[1]": {"target": "T1, hIno80 core complex (wild type) (Homo sapiens, UniProt Q9ULG1)", "experiment": "coupled NADH fluorescence ATPase assay (PK/LDH)", "type": "biochemical", "set-up": "gene INO80; nine-subunit core, Ino80 267-1556 with N-terminal 8-His and C-terminal twin Strep-tag II; codon-optimised genes, BTI-TN-5B1-4 insect cells (MultiBac); calculated 743583 Da, SEC-MALS 802 kDa; actin gene not specified; Actin-like protein 6A; Actin-related protein 5; Actin-related protein 8; INO80 complex subunit B; INO80 complex subunit C; RuvB-like 1; RuvB-like 2", "conditions": "100 nM H2A nucleosome, ATP varied, 5 mM Mg2+, 37°C; non-competitive with ATP, competitive with nucleosomes; allosteric"}, "[2]": {"target": "T1, hIno80 core complex (wild type)", "set-up": "gene INO80", "conditions": "basal, no nucleosome; ATP:MgCl2:TRIS base 1:1:2; 37°C", "text": "coupled NADH fluorescence ATPase assay (PK/LDH) on hIno80 core complex (wild type)"}, "hIno80ΔIes2 complex": {"target": "T2, hIno80ΔIes2 complex (Homo sapiens, UniProt Q9ULG1)", "T2 construct": "gene INO80", "conditions": "basal, no nucleosome; ATP:MgCl2:TRIS base 1:1:2; 37°C"}, "SC2": {"target": "T3, SC2 (Homo sapiens, UniProt Q9ULG1)", "T3 construct": "gene INO80; insect cells; with RuvB-like 1; RuvB-like 2", "T3 sequence (Q9ULG1 487-1556)": "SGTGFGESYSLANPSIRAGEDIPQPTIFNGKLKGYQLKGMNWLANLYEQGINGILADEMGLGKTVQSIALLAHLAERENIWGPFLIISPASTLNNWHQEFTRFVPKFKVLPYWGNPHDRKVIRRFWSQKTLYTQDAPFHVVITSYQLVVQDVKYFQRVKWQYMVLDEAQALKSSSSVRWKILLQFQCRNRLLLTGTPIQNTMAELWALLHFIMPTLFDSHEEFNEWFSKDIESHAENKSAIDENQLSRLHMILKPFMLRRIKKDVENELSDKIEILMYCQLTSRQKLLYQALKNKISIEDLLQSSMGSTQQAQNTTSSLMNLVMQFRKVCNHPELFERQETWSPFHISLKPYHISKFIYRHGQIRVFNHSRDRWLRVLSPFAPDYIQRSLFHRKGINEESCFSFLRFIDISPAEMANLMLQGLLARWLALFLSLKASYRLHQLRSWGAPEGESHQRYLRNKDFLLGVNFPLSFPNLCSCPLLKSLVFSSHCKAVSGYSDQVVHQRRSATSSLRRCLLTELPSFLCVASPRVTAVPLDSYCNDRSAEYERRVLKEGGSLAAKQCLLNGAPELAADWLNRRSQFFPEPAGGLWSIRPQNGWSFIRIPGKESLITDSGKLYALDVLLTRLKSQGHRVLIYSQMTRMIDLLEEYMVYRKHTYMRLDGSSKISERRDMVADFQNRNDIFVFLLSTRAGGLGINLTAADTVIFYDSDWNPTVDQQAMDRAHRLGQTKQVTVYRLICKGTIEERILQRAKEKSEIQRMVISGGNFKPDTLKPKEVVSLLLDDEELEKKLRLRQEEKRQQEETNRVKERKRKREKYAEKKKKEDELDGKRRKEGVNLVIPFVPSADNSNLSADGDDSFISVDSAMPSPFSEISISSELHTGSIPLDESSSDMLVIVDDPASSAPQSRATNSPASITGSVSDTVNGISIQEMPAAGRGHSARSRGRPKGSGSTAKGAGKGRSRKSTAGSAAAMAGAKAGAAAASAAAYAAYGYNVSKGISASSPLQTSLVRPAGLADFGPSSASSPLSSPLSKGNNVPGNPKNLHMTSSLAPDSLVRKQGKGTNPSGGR", "T3 sequence (Q9Y265 whole entry partner)": "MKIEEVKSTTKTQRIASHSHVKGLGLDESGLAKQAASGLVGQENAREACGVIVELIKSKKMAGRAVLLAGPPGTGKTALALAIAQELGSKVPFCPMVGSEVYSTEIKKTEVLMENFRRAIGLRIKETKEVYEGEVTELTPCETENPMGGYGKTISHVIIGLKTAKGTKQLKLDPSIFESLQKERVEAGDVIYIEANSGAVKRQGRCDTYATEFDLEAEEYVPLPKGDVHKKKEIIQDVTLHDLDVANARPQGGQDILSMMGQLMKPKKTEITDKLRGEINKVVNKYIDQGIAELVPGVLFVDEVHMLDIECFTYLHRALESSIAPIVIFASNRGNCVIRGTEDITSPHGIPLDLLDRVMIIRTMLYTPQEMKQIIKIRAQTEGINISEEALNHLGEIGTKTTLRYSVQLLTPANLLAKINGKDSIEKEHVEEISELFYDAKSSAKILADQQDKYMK", "T3 sequence (Q9Y230 2-463 partner)": "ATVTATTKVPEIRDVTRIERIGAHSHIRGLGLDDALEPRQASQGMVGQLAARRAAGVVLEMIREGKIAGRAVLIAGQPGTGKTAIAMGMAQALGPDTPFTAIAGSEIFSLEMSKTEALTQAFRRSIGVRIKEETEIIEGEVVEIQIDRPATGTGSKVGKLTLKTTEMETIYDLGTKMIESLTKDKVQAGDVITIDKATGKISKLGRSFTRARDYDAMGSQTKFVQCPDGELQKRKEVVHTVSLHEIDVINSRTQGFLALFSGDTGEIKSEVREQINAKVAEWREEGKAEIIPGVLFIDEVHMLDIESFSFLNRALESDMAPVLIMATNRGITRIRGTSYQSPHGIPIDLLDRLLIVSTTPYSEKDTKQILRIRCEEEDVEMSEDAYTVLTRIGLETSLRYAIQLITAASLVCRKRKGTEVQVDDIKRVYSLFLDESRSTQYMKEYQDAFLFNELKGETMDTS", "experiment": "coupled NADH fluorescence ATPase assay (PK/LDH)", "type": "biochemical", "conditions": "1 mM ATP, 100 nM nucleosome, 37°C"}}, "data": [{"smiles": "O=P(O)(O)O[C@H]1[C@H](OP(=O)(O)O)[C@@H](OP(=O)(O)O)[C@H](OP(=O)(O)O)[C@@H](OP(=O)(O)O)[C@H]1OP(=O)(O)O", "note": "[IP6]", "values": [{"measurement": "Ki", "setting": "[1]", "result": "37 ± 4", "unit": "µM"}]}, {"smiles": "Nc1ncnc2c1ncn2[C@@H]1O[C@H](COP(=O)(O)OP(=O)(O)OP(=O)(O)O)[C@@H](O)[C@H]1O", "note": "[ATP]", "values": [{"measurement": "Km", "setting": "[2]", "result": "171 ± 55", "unit": "µM"}, {"measurement": "Km", "setting": "hIno80ΔIes2 complex", "result": "326 ± 44", "unit": "µM"}, {"measurement": "coupled NADH fluorescence ATPase assay (PK/LDH)", "setting": "SC2", "result": "Single point inhibition of Ino80 and SC2."}]}]}
